Test results as given in patent publication US7208154B2, “Methods and compositions for the treatment of MHC-associated conditions” (Regents of the University of Michigan, priority 2002, dated 2007).
Like-named read-outs stand apart in the source and are kept apart here.

Tested on: human fibroblastoid line M1 cells
Settings: for Inhibition of cAMP-dependent (2CA-induced) DNA repair induction / genoprotective pathway by pentapeptide: M1 cells preincubated overnight with 50 μg/ml synthetic pentapeptide; for Block of 2CA-triggered DNA repair activity: 10 μM 2CA, co-incubation with various concentrations; for Block of the inhibitory effect of shared epitope peptide (Bead*0401) on 2CA-induced DNA repair: prior incubation of M1 cells: L-NMA 5 mM overnight, KT5823 1 μM 10 min
Text: To further determine the signaling pathways involved in DNA repair induction, the inventors used the Trevigen CometAssay™ kit (Cat. No. 4250-50-K). The CometAssay is a single-cell gel electrophoresis method that can measure a variety of types of DNA damage, and repair of damage, in individual cells. The assay is based on the alkaline lysis of labile DNA at sites of damage. The unwound, relaxed DNA is able to migrate out of the cell during electrophoresis and can be visualized by SYBR Green staining.
To quantify DNA damage, cells were collected and three parallel samples were processed (a negative control, a DNA damage control (H2O2) and a sample subjected to H2O2 following exposure to various modulators of the cAMP signaling pathway). Cells are then washed in PBS. The washed cells are combined with molten low-melting agarose (Trevigen Cat. No. 4250-50-02) and transferred to a CometSlide™ (Trevigen Cat. No. 4250-100-03). The slides are immersed in lysis buffer for 30 min, on ice, in the dark. The slides are then treated with alkali buffer for 20 to 60 min at room temperature in the dark. The slides are then electrophoresed in buffer for 10 min at 20 volts, then fixed in methanol and ethanol. The slides are then stained with SYBR green (Trevigen Cat. No. 4250-50-05) solution and fluorescently imaged with a Diagnostic Instruments digitized camera, mounted on a Nikon Eclipse E400 microscope. Scion Image software is used to quantitate the comet tail intensity. Each data point is derived from tail fluorescent intensity determination in 50–100 individual cells. Data is presented as % DNA repair (the percent decrement in tail fluorescence intensity in agonist or antagonist-treated cells, relative to the intensity recorded in cells treated with H2O2 only)±SEM. (R.U.s)
To directly examine that possibility, cells were incubated overnight with synthetic peptides corresponding to the region contained within amino acids 65–79 and their ability to mount DNA repair activity in response to cAMP-elevating agents was determined. M1 cells were preincubated overnight with 50 μg/ml of synthetic peptides corresponding to the region surrounding the third allelic hypervariable region (aa 65–79) of each of the following DRβ chains: *0401 (65–79*0401) [SEQ ID NO: 5], *0402 (65–79*0402) [SEQ ID NO: 7], *0403 (65–79*0403) [SEQ ID NO: 9] or *0404(65–79*0404) [SEQ ID NO: 10]. At the end of the preincubation, cells were collected, washed and 2CA-induced DNA repair was determined as above. Table 3 (above) lists the different third allelic hypervariable region peptides used in the entire study disclosed here.
A modified method as described previously by Auger et al. [Nature Med 2:306–310 1996] was used. Briefly, cyanogen bromide activated Speharose 4B (1.5 ml) was washed with 1 mM HCl and incubated with peptides in 0.1 M NaHCO3 and 0.5 M NaCl (pH 8) buffer overnight at 4° C. For each peptide, 5 mg was used per milliliter of Sepharose. Free Sepharose groups were blocked with 0.2 M glycine (pH 8) for 2 hours at room temperature. Columns were washed at 4° C. with the following buffers: 0.1 M NaHCO3, 0.5 M NaCl (pH 8) buffer, then 0.5 M CH3COONa (pH 4) buffer and finally PBS at pH 7.5. M1 cells were plated at a density of 0.5×10^6 cells per well (6 well plate) in 10% FBS DMEM medium until 70–80% confluence. Prior to incubation with peptides, cultures were changed to serum-free DMEM medium, then evenly overlaid with 50 μg bead conjugated peptides, and incubated for the indicated period. Soluble peptides were added overnight to M1 cells at a concentration of 50 μg/ml.

Compound | Inhibition of cAMP-dependent (2CA-induced) DNA repair induction / genoprotective pathway by pentapeptide | Block of 2CA-triggered DNA repair activity | also measured
Gln Lys Arg Leu Ala (QKRLA) | equally effective in suppressing cAMP signaling |  | Inhibition of cAMP-dependent (2CA-induced) DNA repair induction / genoprotective pathway by pentapeptide (listed as #3): efficiently inhibited the genoprotective pathway
HBc*0401: recombinant chimeric hepatitis B core protein with insertion of amino acids 65–79 of the β chain encoded by HLA-DRB*0401 |  |  | Suppression of cAMP signaling (2CA-induced DNA repair) (M1 cells preincubated overnight with 50 μg/ml recombinant HBc particles): effectively suppressed cAMP signaling
Gln Lys Cys Leu Ala (QKCLA) | equally effective in suppressing cAMP signaling |  | Inhibition of cAMP-dependent (2CA-induced) DNA repair induction / genoprotective pathway by pentapeptide (listed as #5): efficiently inhibited the genoprotective pathway
Gln Glu Cys Leu Ala (QECLA) | failed to do so |  | 
CC(=O)N[C@H](C(=O)O)C(C)(C)SN=O (racemic) [SNAP, S-Nitroso-N-Acetylpenicillamine, reference compound] |  | completely blocked | 
CCCn1c(=O)[nH]c(=O)c2[nH]cnc21 [enprofylline, reference compound] |  | could be blocked | 
COC(=O)[C@@]1(OC)C[C@H]2O[C@]1(C)n1c3ccccc3c3c4c(c5c6ccccc6n2c5c31)C(=O)N(C)C4 [KT5823, reference compound] |  |  | Block of the inhibitory effect of shared epitope peptide (Bead*0401) on 2CA-induced DNA repair: could be blocked
Gln Lys Arg Ala Ala (QKRAA) | had a similar effect |  | Inhibition of cAMP-dependent (2CA-induced) DNA repair induction / genoprotective pathway by pentapeptide (listed as #1): efficiently inhibited the genoprotective pathway
CCCCC[C@H](O)/C=C/[C@H]1[C@H](O)CC(=O)[C@@H]1CCCCCCC(=O)O [PGE1, prostaglandin E1, reference compound] |  |  | DNA repair triggered (M1 cells stimulated 20 min with various concentrations before 100 μM H2O2): triggered in all cases DNA repair
CNC(=N)NCCC[C@H](N)C(=O)O [L-NMA, NG-methyl-L-arginine, reference compound] |  |  | Block of the inhibitory effect of shared epitope peptide (Bead*0401) on 2CA-induced DNA repair: could be blocked
CCCn1c(=O)c2[nH]c(-c3ccc(OCC(=O)NCCN)cc3)nc2n(CCC)c1=O [XAC, reference compound] |  | could be blocked | 
Nc1nc2c(nc(Br)n2[C@@H]2O[C@@H]3COP(=O)(O)O[C@H]3[C@H]2O)c(=O)[nH]1 [8-Br-cGMP, 8-bromo-cyclic GMP, reference compound] |  | completely blocked | 
Gln Arg Arg Ala Ala (QRRAA) | inhibited completely cAMP-dependent DNA repair induction |  | Inhibition of cAMP-dependent (2CA-induced) DNA repair induction / genoprotective pathway by pentapeptide (listed as #2): efficiently inhibited the genoprotective pathway
O=S(=O)(NCCNC/C=C/c1ccc(Br)cc1)c1cccc2cnccc12 [H-89, reference compound] |  | could also be blocked | 
